Target: T1, C599 maltogenic amylase from Bacillus strain C599 NCIB 11837 (Geobacillus stearothermophilus, UniProt P19531)
T1 construct: The enzyme is excreted into the medium; made in house; host or cells: Bacillus strain C599 (NCIB 11837), the natural producer; no recombinant host
T1 sequence (P19531 34-719): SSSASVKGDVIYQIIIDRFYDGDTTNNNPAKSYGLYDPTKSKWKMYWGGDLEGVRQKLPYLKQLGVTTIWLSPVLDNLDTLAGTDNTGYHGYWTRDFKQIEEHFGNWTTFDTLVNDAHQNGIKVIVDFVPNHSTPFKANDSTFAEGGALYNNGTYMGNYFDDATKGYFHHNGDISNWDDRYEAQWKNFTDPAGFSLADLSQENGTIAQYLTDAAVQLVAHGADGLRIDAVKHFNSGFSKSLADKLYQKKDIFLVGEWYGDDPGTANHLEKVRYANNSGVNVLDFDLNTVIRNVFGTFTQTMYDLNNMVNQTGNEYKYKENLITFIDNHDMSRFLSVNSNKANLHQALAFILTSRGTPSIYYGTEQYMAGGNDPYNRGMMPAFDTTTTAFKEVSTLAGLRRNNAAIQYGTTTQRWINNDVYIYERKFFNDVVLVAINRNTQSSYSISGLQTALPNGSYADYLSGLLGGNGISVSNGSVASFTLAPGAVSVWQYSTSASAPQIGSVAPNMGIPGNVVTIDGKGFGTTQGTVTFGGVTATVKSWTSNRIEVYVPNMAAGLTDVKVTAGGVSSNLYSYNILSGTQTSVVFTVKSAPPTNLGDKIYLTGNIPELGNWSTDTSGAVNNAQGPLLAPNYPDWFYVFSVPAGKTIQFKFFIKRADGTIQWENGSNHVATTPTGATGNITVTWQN
Test: Inhibition of C599-amylase (residual activity after incubation with inhibitors)
Format: biochemical
Conditions: None = 100
Experimental: One maltogenic amylase unit (U) is defined as the amount of enzyme which under standard conditions (temperature 60° C., pH 5.5, and reaction time 30 minutes) produces reducing sugar corresponding to 1 μmol maltose per minute.
A 0.5% soluble starch (supplied by Merck) in 0.1M acetate buffer or 0.05M phosphate buffer (pH 5) is incubated with 1 ml of the enzyme dissolved in deionized water containing 0.1-0.2 U per ml. The reaction is stopped after 30 minutes by addition of 4 ml 0.5N NaOH.
The content of reducing sugar is then determined by means of the Somogyi method (Somogyi: J.Biol.Chem., 153, p. 375-80 (1944).

Compound	Residual activity after 60 min. at room temperature, % (inhibitor 1 mM)	Residual activity after 60 min. at room temperature, % (inhibitor 1%)
O=C(O)c1cc[c]([Hg][Cl])cc1 [PCMB, parachloromecuribenzoate]	92%	
OC[C@H]1O[C@@H]2O[C@H]3[C@H](O)[C@@H](O)[C@@H](O[C@H]4[C@H](O)[C@@H](O)[C@@H](O[C@H]5[C@H](O)[C@@H](O)[C@@H](O[C@H]6[C@H](O)[C@@H](O)[C@@H](O[C@H]7[C@H](O)[C@@H](O)[C@@H](O[C@H]1[C@H](O)[C@H]2O)O[C@@H]7CO)O[C@@H]6CO)O[C@@H]5CO)O[C@@H]4CO)O[C@@H]3CO [Schardinger-α-cyclodextrin]		109%
OC[C@H]1O[C@@H]2O[C@H]3[C@H](O)[C@@H](O)[C@@H](O[C@H]4[C@H](O)[C@@H](O)[C@@H](O[C@H]5[C@H](O)[C@@H](O)[C@@H](O[C@H]6[C@H](O)[C@@H](O)[C@@H](O[C@H]7[C@H](O)[C@@H](O)[C@@H](O[C@H]8[C@H](O)[C@@H](O)[C@@H](O[C@H]1[C@H](O)[C@H]2O)O[C@@H]8CO)O[C@@H]7CO)O[C@@H]6CO)O[C@@H]5CO)O[C@@H]4CO)O[C@@H]3CO [Schardinger-β-cyclodextrin]		107%
